From ChEMBL document CHEMBL1151757, “Synthesis, radiosynthesis, and biological evaluation of fluorine-18-labeled 2beta-carbo(fluoroalkoxy)-3beta-(3'-((Z)-2-haloethenyl)phenyl)nortropanes: candidate radioligands for in vivo imaging of the serotonin transporter with positron emission tomography” (J Med Chem, 2008)

What was measured:
[1] = Ratio of drug uptake in pons to cerebellum in anesthetized cynomolgus monkey after 35 mins postinjection; type: ADME, organism-based, Macaca fascicularis; conditions: in vivo
[2] = Ratio of drug uptake in pons to cerebellum in anesthetized cynomolgus monkey after 85 mins postinjection; type: ADME, organism-based, Macaca fascicularis; conditions: in vivo
[3] = Ratio of drug uptake in medulla to cerebellum in anesthetized cynomolgus monkey after 65 mins postinjection; type: ADME, organism-based, Macaca fascicularis; conditions: in vivo
[4] = Ratio of drug uptake in medulla to cerebellum in anesthetized cynomolgus monkey after 135 mins postinjection; type: ADME, organism-based, Macaca fascicularis; conditions: in vivo, 2.25 h
[5] = Drug uptake in anesthetized cynomolgus monkey brain occipital lobe after 2.5 mins postinjection; type: ADME, organism-based, Macaca fascicularis; conditions: in vivo
[6] = Drug uptake in anesthetized cynomolgus monkey brain occipital lobe after 3.5 mins postinjection; type: ADME, organism-based, Macaca fascicularis; conditions: in vivo
[7] = Drug uptake in anesthetized cynomolgus monkey brain occipital lobe after 55 mins postinjection; type: ADME, organism-based, Macaca fascicularis; conditions: in vivo
[8] = Drug uptake in anesthetized cynomolgus monkey brain occipital lobe after 75 mins postinjection; type: ADME, organism-based, Macaca fascicularis; conditions: in vivo, 1.25 h
[9] = Drug uptake in anesthetized cynomolgus monkey brain occipital lobe after 175 mins postinjection; type: ADME, organism-based, Macaca fascicularis; conditions: in vivo
[10] = Drug uptake in anesthetized cynomolgus monkey brain frontal lobe after 1.5 mins postinjection; type: ADME, organism-based, Macaca fascicularis; conditions: in vivo, 0.025 h
[11] = Drug uptake in anesthetized cynomolgus monkey brain frontal lobe after 2.5 mins postinjection; type: ADME, organism-based, Macaca fascicularis; conditions: in vivo
[12] = Drug uptake in anesthetized cynomolgus monkey brain frontal lobe after 4.5 mins postinjection; type: ADME, organism-based, Macaca fascicularis; conditions: in vivo, 0.075 h
[13] = Drug uptake in anesthetized cynomolgus monkey brain frontal lobe after 27.5 mins postinjection; type: ADME, organism-based, Macaca fascicularis; conditions: in vivo
[14] = Drug uptake in anesthetized cynomolgus monkey brain frontal lobe after 45 mins postinjection; type: ADME, organism-based, Macaca fascicularis; conditions: in vivo, 0.75 h
[15] = Drug uptake in anesthetized cynomolgus monkey brain frontal lobe after 85 mins postinjection; type: ADME, organism-based, Macaca fascicularis; conditions: in vivo
[16] = Drug uptake in anesthetized cynomolgus monkey brain frontal lobe after 125 mins postinjection; type: ADME, organism-based, Macaca fascicularis; conditions: in vivo
[17] = Drug uptake in anesthetized cynomolgus monkey brain frontal lobe after 225 mins postinjection; type: ADME, organism-based, Macaca fascicularis; conditions: in vivo, 3.75 h
[18] = Ratio of drug uptake in midbrain to cerebellum in anesthetized cynomolgus monkey after 235 mins postinjection; type: ADME, organism-based, Macaca fascicularis; conditions: in vivo
[19] = Ratio of drug uptake in pons to cerebellum in anesthetized cynomolgus monkey after 1.5 mins postinjection; type: ADME, organism-based, Macaca fascicularis; conditions: in vivo, 0.025 h
[20] = Ratio of drug uptake in occipital lobe to cerebellum in anesthetized cynomolgus monkey after 115 mins postinjection; type: ADME, organism-based, Macaca fascicularis; conditions: in vivo
Putamen [21] = experiment: Drug uptake in anesthetized cynomolgus monkey brain putamen after 175 mins postinjection; type: ADME, organism-based, Macaca fascicularis; conditions: in vivo
Midbrain [22] = experiment: Drug uptake in anesthetized cynomolgus monkey brain midbrain after 225 mins postinjection; type: ADME, organism-based, Macaca fascicularis; conditions: in vivo, 3.75 h
Pons [23] = experiment: Drug uptake in anesthetized cynomolgus monkey brain pons after 0.5 mins postinjection; type: ADME, organism-based, Macaca fascicularis; conditions: in vivo
Pons [24] = experiment: Drug uptake in anesthetized cynomolgus monkey brain pons after 3.5 mins postinjection; type: ADME, organism-based, Macaca fascicularis; conditions: in vivo
Pons [25] = experiment: Drug uptake in anesthetized cynomolgus monkey brain pons after 22.5 mins postinjection; type: ADME, organism-based, Macaca fascicularis; conditions: in vivo, 0.375 h
Pons [26] = experiment: Drug uptake in anesthetized cynomolgus monkey brain pons after 55 mins postinjection; type: ADME, organism-based, Macaca fascicularis; conditions: in vivo
[27] = Ratio of drug uptake in caudate to cerebellum in anesthetized cynomolgus monkey after 65 mins postinjection; type: ADME, organism-based, Macaca fascicularis; conditions: in vivo
[28] = Ratio of drug uptake in caudate to cerebellum in anesthetized cynomolgus monkey after 95 mins postinjection; type: ADME, organism-based, Macaca fascicularis; conditions: in vivo
Pons [29] = experiment: Drug uptake in anesthetized cynomolgus monkey brain pons after 155 mins postinjection; type: ADME, organism-based, Macaca fascicularis; conditions: in vivo
Pons [30] = experiment: Drug uptake in anesthetized cynomolgus monkey brain pons after 225 mins postinjection; type: ADME, organism-based, Macaca fascicularis; conditions: in vivo, 3.75 h
Medulla [31] = experiment: Drug uptake in anesthetized cynomolgus monkey brain medulla after 4.5 mins postinjection; type: ADME, organism-based, Macaca fascicularis; conditions: in vivo, 0.075 h
Medulla [32] = experiment: Drug uptake in anesthetized cynomolgus monkey brain medulla after 12.5 mins postinjection; type: ADME, organism-based, Macaca fascicularis; conditions: in vivo
Medulla [33] = experiment: Drug uptake in anesthetized cynomolgus monkey brain medulla after 15.5 mins postinjection; type: ADME, organism-based, Macaca fascicularis; conditions: in vivo
Medulla [34] = experiment: Drug uptake in anesthetized cynomolgus monkey brain medulla after 35 mins postinjection; type: ADME, organism-based, Macaca fascicularis; conditions: in vivo
Medulla [35] = experiment: Drug uptake in anesthetized cynomolgus monkey brain medulla after 55 mins postinjection; type: ADME, organism-based, Macaca fascicularis; conditions: in vivo
Medulla [36] = experiment: Drug uptake in anesthetized cynomolgus monkey brain medulla after 145 mins postinjection; type: ADME, organism-based, Macaca fascicularis; conditions: in vivo
Medulla [37] = experiment: Drug uptake in anesthetized cynomolgus monkey brain medulla after 175 mins postinjection; type: ADME, organism-based, Macaca fascicularis; conditions: in vivo
[38] = Octanol-water partition coefficient, log P at pH 7.4 by shake-flask method; type: physicochemical
[39] = Drug uptake in anesthetized cynomolgus monkey brain cerebellum after 1.5 mins postinjection; type: ADME, organism-based, Macaca fascicularis; conditions: in vivo, 0.025 h
[40] = Drug uptake in anesthetized cynomolgus monkey brain cerebellum after 12.5 mins postinjection; type: ADME, organism-based, Macaca fascicularis; conditions: in vivo
[41] = Drug uptake in anesthetized cynomolgus monkey brain cerebellum after 135 mins postinjection; type: ADME, organism-based, Macaca fascicularis; conditions: in vivo, 2.25 h
[42] = Drug uptake in anesthetized cynomolgus monkey brain cerebellum after 155 mins postinjection; type: ADME, organism-based, Macaca fascicularis; conditions: in vivo
[43] = Drug uptake in anesthetized cynomolgus monkey brain cerebellum after 175 mins postinjection; type: ADME, organism-based, Macaca fascicularis; conditions: in vivo
[44] = Ratio of drug uptake in thalamus to cerebellum in anesthetized cynomolgus monkey after 115 mins postinjection; type: ADME, organism-based, Macaca fascicularis; conditions: in vivo
Caudate [45] = experiment: Drug uptake in anesthetized cynomolgus monkey brain caudate after 1.5 mins postinjection; type: ADME, organism-based, Macaca fascicularis, Caudate nucleus; conditions: in vivo, 0.025 h
Caudate [46] = experiment: Drug uptake in anesthetized cynomolgus monkey brain caudate after 4.5 mins postinjection; type: ADME, organism-based, Macaca fascicularis, Caudate nucleus; conditions: in vivo, 0.075 h
Caudate [47] = experiment: Drug uptake in anesthetized cynomolgus monkey brain caudate after 9.5 mins postinjection; type: ADME, organism-based, Macaca fascicularis, Caudate nucleus; conditions: in vivo
Caudate [48] = experiment: Drug uptake in anesthetized cynomolgus monkey brain caudate after 22.5 mins postinjection; type: ADME, organism-based, Macaca fascicularis, Caudate nucleus; conditions: in vivo, 0.375 h
Caudate [49] = experiment: Drug uptake in anesthetized cynomolgus monkey brain caudate after 27.5 mins postinjection; type: ADME, organism-based, Macaca fascicularis, Caudate nucleus; conditions: in vivo
Caudate [50] = experiment: Drug uptake in anesthetized cynomolgus monkey brain caudate after 55 mins postinjection; type: ADME, organism-based, Macaca fascicularis, Caudate nucleus; conditions: in vivo
Caudate [51] = experiment: Drug uptake in anesthetized cynomolgus monkey brain caudate after 65 mins postinjection; type: ADME, organism-based, Macaca fascicularis, Caudate nucleus; conditions: in vivo
Caudate [52] = experiment: Drug uptake in anesthetized cynomolgus monkey brain caudate after 125 mins postinjection; type: ADME, organism-based, Macaca fascicularis, Caudate nucleus; conditions: in vivo
Caudate [53] = experiment: Drug uptake in anesthetized cynomolgus monkey brain caudate after 225 mins postinjection; type: ADME, organism-based, Macaca fascicularis, Caudate nucleus; conditions: in vivo, 3.75 h
Putamen [54] = experiment: Drug uptake in anesthetized cynomolgus monkey brain putamen after 2.5 mins postinjection; type: ADME, organism-based, Macaca fascicularis; conditions: in vivo
Thalamus [55] = experiment: Drug uptake in anesthetized cynomolgus monkey brain thalamus after 9.5 mins postinjection; type: ADME, organism-based, Macaca fascicularis; set-up: unit not given here; conditions: in vivo
Thalamus [56] = experiment: Drug uptake in anesthetized cynomolgus monkey brain thalamus after 27.5 mins postinjection; type: ADME, organism-based, Macaca fascicularis; set-up: unit not given here; conditions: in vivo
Thalamus [57] = experiment: Drug uptake in anesthetized cynomolgus monkey brain thalamus after 85 mins postinjection; type: ADME, organism-based, Macaca fascicularis; set-up: unit not given here; conditions: in vivo
Thalamus [58] = experiment: Drug uptake in anesthetized cynomolgus monkey brain thalamus after 115 mins postinjection; type: ADME, organism-based, Macaca fascicularis; set-up: unit not given here; conditions: in vivo
Midbrain [59] = experiment: Drug uptake in anesthetized cynomolgus monkey brain midbrain after 4.5 mins postinjection; type: ADME, organism-based, Macaca fascicularis; set-up: unit not given here; conditions: in vivo, 0.075 h
Midbrain [60] = experiment: Drug uptake in anesthetized cynomolgus monkey brain midbrain after 12.5 mins postinjection; type: ADME, organism-based, Macaca fascicularis; set-up: unit not given here; conditions: in vivo
Midbrain [61] = experiment: Drug uptake in anesthetized cynomolgus monkey brain midbrain after 85 mins postinjection; type: ADME, organism-based, Macaca fascicularis; set-up: unit not given here; conditions: in vivo
[62] = Ratio of drug uptake in midbrain to cerebellum in anesthetized cynomolgus monkey after 135 mins postinjection; type: ADME, organism-based, Macaca fascicularis; conditions: in vivo, 2.25 h

Q: With `O=C(OCCC[18F])C1C2CCC(CC1c1cccc(/C=C\Br)c1)N2` (configuration not stated) as the compound, how does the Ratio [1] read?
A: 0.9

Q: And the Ratio [2]?
A: 1.2

Q: What about the Ratio [3] of the same compound?
A: 1.3

Q: And the Ratio [4]?
A: 1.7

Q: And the Drug uptake [5]?
A: 1.03

Q: What about the Drug uptake [6] of the same compound?
A: 1.51

Q: And the Drug uptake [7]?
A: 4.59

Q: What about the Drug uptake [8] of the same compound?
A: 4.29

Q: What about the Drug uptake [9] of the same compound?
A: 3.06

Q: What about the Drug uptake [10] of the same compound?
A: 0.25

Q: What about the Drug uptake [11] of the same compound?
A: 0.79

Q: What about the Drug uptake [12] of the same compound?
A: 1.85

Q: What about the Drug uptake [13] of the same compound?
A: 3.8

Q: What about the Drug uptake [14] of the same compound?
A: 3.72

Q: And the Drug uptake [15]?
A: 3.32

Q: What about the Drug uptake [16] of the same compound?
A: 2.93

Q: And the Drug uptake [17]?
A: 1.97

Q: And the Ratio [18]?
A: 2.3

Q: And the Ratio [19]?
A: 0.8

Q: What about the Ratio [20] of the same compound?
A: 1.1

Q: And the Drug uptake (Putamen [21])?
A: 4.1

Q: And the Drug uptake (Midbrain [22])?
A: 4.29

Q: What about the Drug uptake (Pons [23]) of the same compound?
A: 0.01

Q: And the Drug uptake (Pons [24])?
A: 1.87

Q: And the Drug uptake (Pons [25])?
A: 4.89

Q: And the Drug uptake (Pons [26])?
A: 4.72

Q: What about the Ratio [27] of the same compound?
A: 1.2

Q: What about the Ratio [28] of the same compound?
A: 1.3

Q: What about the Drug uptake (Pons [29]) of the same compound?
A: 4.03

Q: And the Drug uptake (Pons [30])?
A: 3.21

Q: And the Drug uptake (Medulla [31])?
A: 3.95

Q: And the Drug uptake (Medulla [32])?
A: 5.82

Q: And the Drug uptake (Medulla [33])?
A: 5.77

Q: And the Drug uptake (Medulla [34])?
A: 5.92

Q: And the Drug uptake (Medulla [35])?
A: 5.66

Q: And the Drug uptake (Medulla [36])?
A: 4.91

Q: What about the Drug uptake (Medulla [37]) of the same compound?
A: 4.26

Q: What about the logD [38] of the same compound?
A: 1.87

Q: What about the Drug uptake [39] of the same compound?
A: 0.48

Q: And the Drug uptake [40]?
A: 5.72

Q: What about the Drug uptake [41] of the same compound?
A: 2.89

Q: And the Drug uptake [42]?
A: 2.62

Q: And the Drug uptake [43]?
A: 2.45

Q: And the Ratio [44]?
A: 1.5

Q: And the Drug uptake (Caudate [45])?
A: 0.31

Q: What about the Drug uptake (Caudate [46]) of the same compound?
A: 2.17

Q: What about the Drug uptake (Caudate [47]) of the same compound?
A: 3.93

Q: What about the Drug uptake (Caudate [48]) of the same compound?
A: 4.63

Q: And the Drug uptake (Caudate [49])?
A: 4.94

Q: And the Drug uptake (Caudate [50])?
A: 5.31

Q: And the Drug uptake (Caudate [51])?
A: 5.22

Q: And the Drug uptake (Caudate [52])?
A: 4.63

Q: And the Drug uptake (Caudate [53])?
A: 3.46

Q: And the Drug uptake (Putamen [54])?
A: 1.34

Q: What about the Drug uptake (Thalamus [55]) of the same compound?
A: 4.02

Q: And the Drug uptake (Thalamus [56])?
A: 5.08

Q: What about the Drug uptake (Thalamus [57]) of the same compound?
A: 5.27

Q: And the Drug uptake (Thalamus [58])?
A: 4.82

Q: What about the Drug uptake (Midbrain [59]) of the same compound?
A: 3.08

Q: And the Drug uptake (Midbrain [60])?
A: 5.24

Q: What about the Drug uptake (Midbrain [61]) of the same compound?
A: 5.86

Q: And the Ratio [62]?
A: 1.9
